Key:
[1] = tested on: Eschericia coli (E. coli) strain ATCC25922; test: Standard microdilution assay, MIC against E. coli ATCC25922; type: cell-based; conditions: Escherichia coli; E. coli strain ATCC25922, standard microdilution assay; cutoff 16 micrograms/mL; read-out: MIC E. Coli
Procedure, shortened: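 Scoring as + or − used a 16 micrograms/mL cutoff on minimum inhibitory concentrations. These came from CLSI-standard microdilution, quality-controlled with reference strains tested in the same run.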

[2] = tested on: Staphylococcus aureus (S. aureus) 11540 strain; test: Standard microdilution assay, MIC against S. aureus 11540; type: cell-based; conditions: S. aureus 11540 strain, standard microdilution assay, cutoff 16 micrograms/mL, read-out: MIC S. aureus
Procedure: The in vitro activity of the compounds of the present invention can be determined. Antimicrobial testing is typically performed to determine the minimum inhibitory concentration (MIC). Minimum inhibitory concentrations (MICs) are determined by the microdilution method in a final volume of 100 μl according to protocols outlined by The Clinical and Laboratory Standards Institute (CLSI). Performance standards for reference strains are assessed within the same experimental design to maintain quality control. See, for example, Clinical Laboratory Standards Institute: Methods for dilution antimicrobial susceptibility tests for bacteria that grow aerobically M7-A8. Approved Standard-Eighth Edition. Wayne, Pa.: CLSI; December 2008; and Clinical Laboratory Standards Institute: Performance Standards for Antimicrobial Susceptibility Testing M100-S20; Approved Standard-Twentieth Edition. Wayne, Pa.: CLSI; June 2010.
The compounds of the present invention were tested for antimicrobial activity. The Compounds 1-582 were run against Eschericia coli (E. coli) strain ATCC25922 and Compounds 320-582 were run against Staphylococcus aureus (S. aureus) 11540 strain using a standard microdilution assay to determine minimum inhibitory concentrations (MICs). […] It will be recognized by one skilled in the art that the compounds can be assessed against other bacterial organisms and that the presentation of data for activity against Eschericia coli and Staphylococcus aureus are illustrative and in no way is intended to limit the scope of the present invention. The compounds of the present invention can be assayed against a range of other microorganisms depending upon the performance activity desired to be gathered. Furthermore, the “+” and “−” representation and the selection of a cutoff value of 16 micrograms/mL is also illustrative and in no way is intended to limit the scope of the present invention.

SMILES	MIC [1]	MIC [2]
C[C@H](N)CCCc1cc(OC(F)(F)F)c(F)c(-c2cc3cn(-c4ccc([C@@H](N)CCCNC(=N)N)cc4)c(=O)nc3[nH]2)c1 [Compound 413]	< 16 µg/mL	< 16 µg/mL
C[C@H](N)CCCc1cc(Cl)c(F)c(-c2cc3cn(-c4ccc([C@H](C)NCC[C@@H](Cn5cc(CN)nn5)NC(=N)N)cc4)c(=O)nc3[nH]2)c1 [Compound 323]	< 16 µg/mL	< 16 µg/mL
C=C[C@@H](CCNC(=N)N)NCc1ccc(-n2cc3cc(-c4cc(CCC[C@H](C)N)cc(Cl)c4F)[nH]c3nc2=O)cc1 [Compound 387]	< 16 µg/mL	< 16 µg/mL
C[C@H](N)CCCc1cc(Cl)c(F)c(-c2cc3cn(-c4ccc([C@H](C)N(C=O)CCCNC(=N)N)cc4)c(=O)nc3[nH]2)c1 [Compound 400]	< 16 µg/mL	< 16 µg/mL
CC[C@H](NCCCNC(=N)N)c1ccc(-n2cc3cc(-c4cc(CCC[C@@H](N)CO)cc(Cl)c4F)[nH]c3nc2=O)cc1 [Compound 432]	< 16 µg/mL	< 16 µg/mL
C[C@H](N)CCCc1cc(OC(F)(F)F)c(F)c(-c2cc3cn(-c4ccc([C@H](C)NCC[C@@H](CCN)NC(=N)N)cc4)c(=O)nc3[nH]2)c1 [Compound 335]	< 16 µg/mL	< 16 µg/mL
COC[C@H](CCN[C@@H](C)c1ccc(-n2cc3cc(-c4cc(CCC[C@H](C)N)cc(Cl)c4F)[nH]c3nc2=O)cc1)NC(=N)N [Compound 345]	< 16 µg/mL	< 16 µg/mL
C=C[C@H](C[C@@H](C)NCc1ccc(-n2cc3cc(-c4cc(CCC[C@H](C)N)cc(OC(F)(F)F)c4F)[nH]c3nc2=O)cc1)NC(=N)N [Compound 372]	< 16 µg/mL	< 16 µg/mL
C[C@H](N)CCCc1cc(Cl)c(F)c(-c2cc3cn(-c4ccc([C@H]5CCC[C@H](CCNC(=N)N)N5)cc4)c(=O)nc3[nH]2)c1 [Compound 433]	< 16 µg/mL	< 16 µg/mL
C[C@H](N)CCCc1cc(Cl)c(F)c(-c2cc3cn(-c4ccc(CNCC[C@@H](CN)NC(=N)N)cc4)c(=O)nc3[nH]2)c1 [Compound 375]	< 16 µg/mL	< 16 µg/mL
C[C@H](N)CCCc1cc(OC(F)(F)F)c(F)c(-c2cc3cn(-c4ccc([C@@H]5COC[C@H](CCN)N5)cc4)c(=O)nc3[nH]2)c1 [Compound 358]	< 16 µg/mL	< 16 µg/mL
C[C@H](N)CCCc1cc(Cl)c(F)c(-c2cc3cn(-c4ccc([C@H](CCO)NCCCNC(=N)N)cc4)c(=O)nc3[nH]2)c1 [Compound 15]	< 16 µg/mL	–
C[C@H](N)CCCc1cc(-c2cc3cn(-c4ccc([C@H](CO)NCCCNC(=N)N)cc4)c(=O)nc3[nH]2)cc(C(F)(F)F)c1 [Compound 108]	< 16 µg/mL	–
C[C@H](N)CCCc1cc(Cl)c(F)c(-c2cc3cn(-c4ccc([C@H](CCNc5nccs5)NCCCNC(=N)N)cc4)c(=O)nc3[nH]2)c1 [Compound 85]	< 16 µg/mL	–
C[C@H](N)CCCc1cc(Cl)c(F)c(-c2[nH]c3nc(=O)n(-c4ccc([C@H](C)NCCCNC(=N)N)cc4)cc3c2Cl)c1 [Compound 290]	< 16 µg/mL	–
C[C@H](N)CCCc1cc(Cl)c(F)c(-c2cc3cn(-c4ccc([C@H](C)NCC[C@H](CN)NC(=N)N)cc4)c(=O)nc3[nH]2)c1 [Compound 304]	< 16 µg/mL	–

SMILES	MIC [1]	MIC [2]
COC[C@H](N)CCCc1cc(SC(F)(F)F)cc(-c2cc3cn(-c4ccc([C@H](C)NCCCNC(=N)N)cc4)c(=O)nc3[nH]2)c1 [Compound 130]	< 16 µg/mL	–
C[C@H](NCCCNC(=N)N)c1ccc(-n2cc3cc(-c4cc(OC(F)(F)F)cc([C@H]5C[C@H](N)CCO5)c4)[nH]c3nc2=O)cc1 [Compound 36]	< 16 µg/mL	–
C=C[C@H](N)CCNCc1ccc(-n2cc3cc(-c4cc(CCC[C@H](C)N)cc(Cl)c4F)[nH]c3nc2=O)cc1 [Compound 143]	< 16 µg/mL	–
C[C@H](N)CCCc1cc(OC(F)(F)F)c(F)c(-c2cc3cn(-c4ccc(CN[C@H](C)CCNC(=N)N)cc4)c(=O)nc3[nH]2)c1 [Compound 228]	< 16 µg/mL	–
C[C@H](N)CCCc1cc(OC(F)(F)F)c(F)c(-c2cc3cn(-c4ccc([C@H](C)NCC[C@@H](CCCO)NC(=N)N)cc4)c(=O)nc3[nH]2)c1 [Compound 240]	< 16 µg/mL	–
C[C@H](N)CCCc1cc(Cl)c(F)c(-c2cc3cn(-c4ccc(CNCC[C@@H](N)C5CC5)cc4)c(=O)nc3[nH]2)c1 [Compound 148]	< 16 µg/mL	–
C[C@H](N)CCCc1cc(SC(F)(F)F)cc(-c2cc3cn(-c4ccc([C@@H](CCc5ccncc5)NCCCNC(=N)N)cc4)c(=O)nc3[nH]2)c1 [Compound 86]	< 16 µg/mL	–
C[C@H](N)CCCc1cc(Cl)c(F)c(-c2cc3cn(-c4ccc([C@@H](NCCCNC(=N)N)c5cccnc5)cc4)c(=O)nc3[nH]2)c1 [Compound 61]	< 16 µg/mL	–
C[C@H](N)CCCc1cc(Cl)c(F)c(-c2cc3cn(-c4ccc([C@H](C)NCC[C@H](CCCN)NC(=N)N)cc4)c(=O)nc3[nH]2)c1 [Compound 282]	< 16 µg/mL	–
N=C(N)NCCCNCc1ccc(-n2cc3cc(-c4ccc(/C=C/C5CN(C(=N)N)C5)cc4)[nH]c3nc2=O)cc1 [Compound 50]	< 16 µg/mL	–
C[C@H](N)CCCc1cc(SC(F)(F)F)cc(-c2cc3cn(-c4ccc([C@@H](NCCCNC(=N)N)C(N)=O)cc4)c(=O)nc3[nH]2)c1 [Compound 58]	< 16 µg/mL	–
C[C@H](N)CCCc1cc(SC(F)(F)F)cc(-c2cc3cn(-c4ccc([C@H](Cc5cccnc5)NCCCNC(=N)N)cc4)c(=O)nc3[nH]2)c1 [Compound 57]	< 16 µg/mL	–
C[C@H](N)CCCc1cc(Cl)c(F)c(-c2cc3cn(-c4ccc(CNCc5ccncc5)cc4)c(=O)nc3[nH]2)c1 [Compound 127]	> 16 µg/mL	–
C[C@H](N)CCCc1cc(SC(F)(F)F)cc(-c2cc3cn(-c4ccc([C@@H](NCCCNC(=N)N)C(=O)N5CCNCC5)cc4)c(=O)nc3[nH]2)c1 [Compound 14]	< 16 µg/mL	–
C[C@H](N)CCCc1cc(Cl)c(F)c(-c2cc3cn(-c4ccc(CN[C@@H](C)CCN)cc4)c(=O)nc3[nH]2)c1 [Compound 196]	< 16 µg/mL	–
C[C@H](N)CCCc1cc(-c2cc3cn(-c4ccc([C@H](CCCO)NCCCNC(=N)N)cc4)c(=O)nc3[nH]2)cc(C(F)(F)F)c1 [Compound 101]	< 16 µg/mL	–

Results, then the compound that gave them:

MIC [1]	MIC [2]	SMILES
< 16 µg/mL	< 16 µg/mL	N=C(N)NCC[C@@H]1CCC[C@@H](c2ccc(-n3cc4cc(-c5ccc(S(=O)(=O)NC6CCN(C(=N)N)CC6)cc5)[nH]c4nc3=O)cc2)N1 [Compound 494]
< 16 µg/mL	< 16 µg/mL	C[C@H](N)CCCc1cc(Cl)c(F)c(-c2cc3cn(-c4ccc(C(=N)NCCCNC(=N)N)cc4)c(=O)nc3[nH]2)c1 [Compound 477]
< 16 µg/mL	< 16 µg/mL	C[C@H](CCNC(=N)N)NCc1ccc(-n2cc3cc(-c4cc(CCC[C@@H](N)CO)cc(Cl)c4F)[nH]c3nc2=O)cc1 [Compound 450]
< 16 µg/mL	< 16 µg/mL	C[C@H](NCCCNC(=N)N)c1ccc(-n2cc3cc(-c4cc([C@H]5CC[C@@H](CN)O5)cc(Cl)c4F)[nH]c3nc2=O)cc1 [Compound 445]
< 16 µg/mL	< 16 µg/mL	C[C@H](N)CCCc1cc(Cl)c(F)c(-c2cc3cn(-c4ccc([C@H]5CCC[C@@H](CCNC(=N)N)N5)cc4)c(=O)nc3[nH]2)c1 [Compound 444]
< 16 µg/mL	> 16 µg/mL	C[C@@H](CN)CN1CC[C@@H](c2cc3cn(-c4ccc(CN5CCCNC5=N)cc4)c(=O)nc3[nH]2)C1 [Compound 574]
> 16 µg/mL	< 16 µg/mL	C[C@H](N)CCCc1cc(Cl)c(F)c(-c2cc3cn(-c4ccc([C@@H]5CCC[C@@H](Cc6cnc(N)s6)N5)cc4)c(=O)nc3[nH]2)c1 [Compound 538]
< 16 µg/mL	< 16 µg/mL	C[C@H](N)CCCc1cc(Cl)c(F)c(-c2cc3cn(-c4ccc(CN[C@H](CCNC(=N)N)CCc5nccs5)cc4)c(=O)nc3[nH]2)c1 [Compound 528]
< 16 µg/mL	< 16 µg/mL	C[C@H](N)CCCc1cc(Cl)c(F)c(-c2cc3cn(-c4ccc(C(=N)NC5CC5)cc4)c(=O)nc3[nH]2)c1 [Compound 503]
< 16 µg/mL	< 16 µg/mL	C[C@H](N)CCCc1cc(OC(F)(F)F)c(F)c(-c2cc3cn(-c4ccc([C@@H]5CCC[C@@H](CCNc6ncc[nH]6)N5)cc4)c(=O)nc3[nH]2)c1 [Compound 553]
< 16 µg/mL	< 16 µg/mL	C[C@H](N)CCCc1cc(OC(F)(F)F)c(F)c(-c2cc3cn(-c4ccc([C@H](N)CCCN)cc4)c(=O)nc3[nH]2)c1 [Compound 455]
< 16 µg/mL	< 16 µg/mL	C[C@H](N)CCCc1cc(Cl)c(F)c(-c2cc3cn(-c4ccc(CN[C@@H](CCNC(=N)N)CCc5nccs5)cc4)c(=O)nc3[nH]2)c1 [Compound 519]
> 16 µg/mL	> 16 µg/mL	C[C@H](N)CCCc1cc(OC(F)(F)F)c(F)c(-c2cc3cn(-c4ccc([C@@H]5CCC[C@@H](CCn6ccnn6)N5)cc4)c(=O)nc3[nH]2)c1 [Compound 479]
< 16 µg/mL	< 16 µg/mL	C[C@H](NCCCNC(=N)N)c1ccc(-n2cc3cc(-c4cc(CCC[C@H](N)CO)cc(Cl)c4F)[nH]c3nc2=O)cc1 [Compound 476]
